# Laboratory results published in patent US11407768B2, “AMPK activators” (Kallyope, Inc., priority 2020, dated 2022).
# Molecular target: Recombinant AMPK α1/β1/γ1 complex (Homo sapiens (Human), UniProt Q13131+Q9Y478)
# Experiment: In vitro pAMPK1 kinase activation assay (ADP-Glo, SAMS peptide)
# Type: biochemical
# Conditions: AMPK α1/β1/γ1 pre-activated with CAMKK2; 12-point curve; 15 min compound incubation
# Description: Compound effect on AMPK enzyme activation was determined in a cell-free format with a 12-point concentration curve. The ADP-Glo detection system was used to determine phosphorylation of a SAMS peptide substrate. Recombinant AMPK α1/β1/γ1 complex was pre-activated by phosphorylation with CAMKK2 followed by incubated with compound for 15 minutes prior to the SAMS phosphorylation reaction. Activity curves and EC50 values were fitted by interpolation to an ATP:ADP standard curve as indicated by the ADP-Glo manufacturer using Prism software.
# Sequence of Recombinant AMPK α1/β1/γ1 complex (Q13131 whole entry): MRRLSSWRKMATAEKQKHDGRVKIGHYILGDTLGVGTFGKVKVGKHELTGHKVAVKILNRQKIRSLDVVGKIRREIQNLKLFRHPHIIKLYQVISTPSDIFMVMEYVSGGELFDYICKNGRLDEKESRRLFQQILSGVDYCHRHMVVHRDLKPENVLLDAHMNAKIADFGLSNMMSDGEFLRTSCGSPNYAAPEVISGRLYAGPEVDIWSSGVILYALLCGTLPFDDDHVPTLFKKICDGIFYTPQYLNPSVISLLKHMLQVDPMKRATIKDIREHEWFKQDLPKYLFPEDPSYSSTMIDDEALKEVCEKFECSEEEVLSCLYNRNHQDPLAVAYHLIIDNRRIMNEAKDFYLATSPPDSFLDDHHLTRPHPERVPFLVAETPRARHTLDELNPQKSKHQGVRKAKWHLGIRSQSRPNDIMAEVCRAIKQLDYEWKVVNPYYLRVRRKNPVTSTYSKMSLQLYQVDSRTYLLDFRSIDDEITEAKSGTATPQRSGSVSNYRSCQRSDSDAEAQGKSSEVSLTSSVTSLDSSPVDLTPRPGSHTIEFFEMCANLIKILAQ
# Sequence of Recombinant AMPK α1/β1/γ1 complex (Q9Y478 whole entry): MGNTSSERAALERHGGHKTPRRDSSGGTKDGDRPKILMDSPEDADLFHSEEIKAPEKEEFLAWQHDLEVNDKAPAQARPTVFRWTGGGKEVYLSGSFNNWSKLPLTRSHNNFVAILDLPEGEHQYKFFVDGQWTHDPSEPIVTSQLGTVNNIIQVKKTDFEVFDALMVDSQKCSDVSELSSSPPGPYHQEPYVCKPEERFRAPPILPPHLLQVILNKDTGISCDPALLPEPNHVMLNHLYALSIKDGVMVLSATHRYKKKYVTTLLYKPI
# Sequence of Recombinant AMPK α1/β1/γ1 complex (P54619 whole entry partner): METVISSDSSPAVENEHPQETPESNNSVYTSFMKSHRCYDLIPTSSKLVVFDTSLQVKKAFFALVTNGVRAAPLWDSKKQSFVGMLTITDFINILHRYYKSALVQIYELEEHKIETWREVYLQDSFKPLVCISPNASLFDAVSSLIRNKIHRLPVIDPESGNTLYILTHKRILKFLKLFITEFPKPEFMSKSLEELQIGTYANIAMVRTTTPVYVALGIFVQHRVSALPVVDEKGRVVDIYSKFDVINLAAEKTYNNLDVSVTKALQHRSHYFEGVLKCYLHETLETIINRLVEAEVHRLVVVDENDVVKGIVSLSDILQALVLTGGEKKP
row,SMILES,EC50
1,O=S(=O)(NC[C@H](O)[C@@H](O)[C@H](O)[C@H](O)CO)c1ccc(-c2ccc(-c3cc4nc(O[C@@H]5CO[C@H]6[C@@H]5OC[C@H]6O)[nH]c4cc3Cl)cc2)cc1 [Compound 71],0.63 nM
2,"C[N+](C)(C)CCNC(=O)c1ccc(-c2ccc(-c3cc4nc(O[C@@H]5CO[C@H]6[C@@H]5OC[C@H]6O)[nH]c4cc3Cl)cc2)cc1 [Compound 29, 2-(4′-(6-chloro-2-(((3R,3aR,6R,6aR)-6-hydroxyhexahydrofuro[3,2-b]furan-3-yl)oxy)-1H-benzo [d]imidazol-5-yl)-[1,1′-biphenyl]-4-carboxamido)-N,N,N-trimethylethan-1-aminium bicarbonate]",0.56 nM
3,"O=S(=O)(O)c1ccc(-c2ccc(-c3nc4nc(O[C@@H]5CO[C@H]6[C@@H]5OC[C@H]6O)[nH]c4cc3Cl)cc2)cc1 [Compound 69, 4′-(6-chloro-2-(((3R,3aR,6R,6aR)-6-hydroxyhexahydrofuro[3,2-b]furan-3-yl)oxy)-1H-imidazo[4,5-b]pyridin-5-yl)-[1,1′-biphenyl]-4-sulfonic acid]",1.84 nM
4,"O=P(O)(O)c1ccc(-c2ccc(-c3nc4nc(O[C@H]5CO[C@H](CO)[C@@H](O)C5)[nH]c4cc3Cl)cc2)cc1 [Compound 12, (4′-(6-chloro-2-(((3R,5S,6R)-5-hydroxy-6-(hydroxymethyl)tetrahydro-2H-pyran-3-yl)oxy)-1H-imidazo[4,5b]pyridin-5-yl)-[1,1′-biphenyl]-4-yl)phosphonic acid]",152 nM
5,"OCCN1CCN(Cc2ccc(-c3ccc(-c4nc5nc(O[C@@H]6CO[C@H]7[C@@H]6OC[C@H]7O)[nH]c5cc4Cl)cc3)cc2)CC1 [Compound 51, (3R,3aR,6R,6aR)-6-((6-chloro-5-(4′-((4-(2-hydroxyethyl)piperazin-1-yl)methyl)-[1,1′-biphenyl]-4-yl)-1H-imidazo[4,5-b]pyridin-2-yl)oxy)hexahydrofuro[3,2-b]furan-3-ol]",0.72 nM
6,"OCC(CO)(CO)NCc1ccc(-c2ccc(-c3cc4nc(O[C@@H]5CO[C@H]6[C@@H]5OC[C@H]6O)[nH]c4cc3Cl)cc2)cc1 [Compound 36, 2-(((4′-(6-chloro-2-(((3R,3aR,6R,6aR)-6-hydroxyhexahydrofuro[3,2-b]furan-3-yl)oxy)-1H-benzo[d]imidazol-5-yl)-[1,1′-biphenyl]-4-yl)methyl)amino)-2-(hydroxymethyl)propane-1,3-diol]",0.84 nM
7,"CN(CCOCCO)C(=O)c1ccc(-c2ccc(-c3cc4nc(O[C@@H]5CO[C@H]6[C@@H]5OC[C@H]6O)[nH]c4cc3Cl)cc2)cc1 [Compound 48, 4′-(6-chloro-2-(((3R,3aR,6R,6aR)-6-hydroxyhexahydrofuro[3,2-b]furan-3-yl)oxy)-1H-benzo [d]imidazol-5-yl)-N-(2-(2-hydroxyethoxy)ethyl)-N-methyl-[1,1′-biphenyl]-4-carboxamide]",1.16 nM
8,"O=C(CCCNCc1ccc(-c2ccc(-c3cc4nc(O[C@@H]5CO[C@H]6[C@@H]5OC[C@H]6O)[nH]c4cc3Cl)cc2)cc1)NC(CO)CO [Compound 38, 4-(((4′-(6-chloro-2-(((3R,3aR,6R,6aR)-6-hydroxyhexahydrofuro[3,2-b]furan-3-yl)oxy)-1H-benzo[d]imidazol-5-yl)-[1,1′-biphenyl]-4-yl)methyl)amino)-N-(1,3-dihydroxypropan-2-yl)butanamide]",2.4 nM
9,"O=C(CCCNCc1ccc(-c2ccc(-c3cc4nc(O[C@@H]5CO[C@H]6[C@@H]5OC[C@H]6O)[nH]c4cc3Cl)cc2)cc1)NCCO [Compound 37, 4-(((4′-(6-chloro-2-(((3R,3aR,6R,6aR)-6-hydroxyhexahydrofuro[3,2-b]furan-3-yl)oxy)-1H-benzo[d]imidazol-5-yl)-[1,1′-biphenyl]-4-yl)methyl)amino)-N-(2-hydroxyethyl)butanamide]",3.6 nM
